Measured values: patent US10233186B2, “Inhibitors of activin receptor-like kinase” (BLUEPRINT MEDICINES CORPORATION, priority 2016, dated 2019)
pIC50: −log10 of the molar value.

Experiments:
human ALK2 R206H = biological target: T1, human ALK2 R206H (Homo sapiens, UniProt Q04771, R206H); experiment: Cell-based ALK2-R206H cell activity assay (Smad1-Ser463/Ser465 phosphorylation by AlphaLISA in HEK293-ALK2-R206H cells); details: read-out: Cell Line (Cell Assay IC50)
T1 construct: expressed in transfected cells; host or cells: HEK293 (ATCC CRL1573), lentivirus transduction, blasticidin selection
T1 sequence (Q04771 21-509 R206H): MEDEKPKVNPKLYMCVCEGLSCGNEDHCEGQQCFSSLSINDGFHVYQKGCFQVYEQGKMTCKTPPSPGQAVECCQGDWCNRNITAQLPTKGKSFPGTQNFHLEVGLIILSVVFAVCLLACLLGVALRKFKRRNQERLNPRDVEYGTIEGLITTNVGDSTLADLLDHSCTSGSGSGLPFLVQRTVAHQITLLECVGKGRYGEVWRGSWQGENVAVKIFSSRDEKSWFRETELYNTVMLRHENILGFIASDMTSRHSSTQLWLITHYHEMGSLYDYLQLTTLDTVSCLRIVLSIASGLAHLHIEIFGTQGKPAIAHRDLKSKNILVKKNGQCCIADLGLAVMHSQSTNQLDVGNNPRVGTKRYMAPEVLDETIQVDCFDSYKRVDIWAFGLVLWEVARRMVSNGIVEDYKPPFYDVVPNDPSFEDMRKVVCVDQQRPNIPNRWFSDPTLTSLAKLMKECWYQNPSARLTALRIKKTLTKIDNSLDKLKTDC
Summary of the method: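 Stable HEK293 cells expressing C-terminally FLAG-tagged human ALK2 R206H (lentiviral, blasticidin-selected) were treated with compounds in 10-point, 3-fold dilutions from 10 μM or 1 μM top, in duplicate. Smad1 Ser463/Ser465 phosphorylation was read by AlphaLISA.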

[1] = biological target: T2, ALK2 R206H (GST-tagged mutant ALK2) (Homo sapiens, UniProt Q04771, R206H); experiment: ALK binding assay (LANTHASCREEN TR-FRET competitive binding, displacement of Kinase Tracer 178); details: ALK2 R206H, LANTHASCREEN TR-FRET competitive binding; read-out: Binding Assay (IC50)
T2 construct: purchased Carna Bioscience or ThermoFisher 09-148 or PV6232
T2 sequence (Q04771 21-509 R206H): T1 sequence (Q04771 21-509 R206H)

Structure (SMILES): CCOC(=O)N1CCN(c2ccnn3cc(-c4ccc([C@H]5CCN(C(C)C)C5)cc4)cc23)CC1 [Compound 231]
- pIC50 (human ALK2 R206H): > 7.00
- pIC50 [1]: > 8.00

Structure (SMILES): CCOC(=O)N1CCN(c2ccnn3cc(-c4ccc([C@]5(OC)CCN(C(C)C)C5)cc4)cc23)CC1 [Compound 604]
- pIC50 (human ALK2 R206H): > 7.00
- pIC50 [1]: > 8.00

Structure (SMILES): CC(C)N1CCC[C@](O)(c2ccc(-c3cc4c(N5CCN(C(=O)C6CC6)CC5)ccnn4c3)cc2)C1 [Compound 326]
- pIC50 (human ALK2 R206H): > 7.00
- pIC50 [1]: > 8.00

Structure (SMILES): CC(C)NC(=O)N1CCN(c2ccnn3cc(-c4ccc(C5CCN(C(C)C)CC5)cc4F)cc23)CC1 [Compound 649]
- pIC50 (human ALK2 R206H): > 7.00
- pIC50 [1]: > 8.00

Structure (SMILES): CCN1CCCC(c2ccc(-c3cc4c(N5CCN(C(=O)C6CC6)CC5)ccnn4c3)cc2)C1 (stereo not drawn) [Compound 202]
- pIC50 (human ALK2 R206H): > 7.00
- pIC50 [1]: > 8.00

Structure (SMILES): CCN1CCC(c2ccc(-c3cc4c(N5CCN(C(=O)N6CCCCC6)CC5)ccnn4c3)cc2)CC1 [Compound 379]
- pIC50 (human ALK2 R206H): 6.30 to 7.00
- pIC50 [1]: > 8.00

Structure (SMILES): CCOC(=O)N1CCN(c2ccnn3cc(-c4ccc(C5CCN(CC)CC5)cc4)cc23)CC1 [Compound 230, ethyl 4-(6-(4-(1-ethylpiperidin-4-yl)phenyl)pyrrolo[1,2-b]pyridazin-4-yl)piperazine-1-carboxylate]
- pIC50 (human ALK2 R206H): > 7.00
- pIC50 [1]: > 8.00

Structure (SMILES): O=C(C1CC1)N1CCN(c2ccnn3cc(-c4ccc(C5CCNC5)cc4)cc23)CC1 (stereo not drawn) [Compound 112]
- pIC50 (human ALK2 R206H): 6.30 to 7.00
- pIC50 [1]: > 8.00

Structure (SMILES): CC(C)NC(=O)N1CCN(c2ccnn3cc(-c4ccc(C5(F)CCNCC5)cc4)cc23)CC1 [Compound 499]
- pIC50 (human ALK2 R206H): 6.30 to 7.00
- pIC50 [1]: > 8.00

Structure (SMILES): CC(C)N1CCC(C)(c2ccc(-c3cc4c(N5CCN(C(=O)C6CC6)CC5)ccnn4c3)cc2)CC1 [Compound 565]
- pIC50 (human ALK2 R206H): > 7.00
- pIC50 [1]: > 8.00

Structure (SMILES): CCN1CCN(c2c(F)cc(-c3cc4c(N5CCN(C(=O)C6CC6)CC5)ccnn4c3)cc2F)CC1 [Compound 360]
- pIC50 (human ALK2 R206H): 6.30 to 7.00
- pIC50 [1]: > 8.00

Structure (SMILES): CC(C)N1CC[C@H](c2ccc(-c3cc4c(N5CCN(C(=O)[C@H]6C[C@H](C#N)C6)CC5)ccnn4c3)cc2)C1 [Compound 366]
- pIC50 (human ALK2 R206H): > 7.00
- pIC50 [1]: > 8.00

Structure (SMILES): COC1(c2ccc(-c3cc4c(N5CCN(C(=O)NC(C)C)CC5)ccnn4c3)nc2)CCN([C@@H](C)COC(F)F)CC1 [Compound 894]
- pIC50 (human ALK2 R206H): > 7.00
- pIC50 [1]: > 8.00

Structure (SMILES): CCN1CC(Oc2ccc(-c3cc4c(N5CCN(C(=O)C6CC6)CC5)ccnn4c3)cc2)C1 [Compound 167]
- pIC50 (human ALK2 R206H): > 7.00
- pIC50 [1]: > 8.00

Structure (SMILES): CCN1CCN(c2ccc(-c3cc4c(N5CCN(C(=O)C6CC6)CC5)ccnn4c3)cc2)C(=O)C1 [Compound 259]
- pIC50 (human ALK2 R206H): < 6.30
- pIC50 [1]: 7.30 to 8.00

Structure (SMILES): CC(C)NC(=O)N1CCN(c2ccnn3cc(-c4cnn([C@@H]5CCCN(C(C)C)C5)c4)cc23)CC1 [Compound 556]
- pIC50 (human ALK2 R206H): > 7.00
- pIC50 [1]: > 8.00

Structure (SMILES): N[C@H](CO)c1ccc(-c2cc3c(N4CCN(C(=O)OC5COC5)CC4)ccnn3c2)cc1 [Compound 762]
- pIC50 (human ALK2 R206H): 6.30 to 7.00
- pIC50 [1]: > 8.00

Structure (SMILES): CCOC(=O)N1CCN(c2ccnn3cc(-c4ccc(N5CCNCC5)cc4)cc23)CC1 [Compound 143]
- pIC50 (human ALK2 R206H): > 7.00
- pIC50 [1]: > 8.00

Structure (SMILES): CCOC(=O)N1CCN(c2ccnn3cc(-c4ccc(C5CNCCO5)cc4)cc23)CC1 (stereo not drawn) [Compound 144]
- pIC50 (human ALK2 R206H): 6.30 to 7.00
- pIC50 [1]: > 8.00

Structure (SMILES): CO[C@]1(c2ccc(-c3cc4c(N5CCN(C(=O)NC(C)C)CC5)ccnn4c3)cc2)CCN(C(C)C)C1 [Compound 637]
- pIC50 (human ALK2 R206H): > 7.00
- pIC50 [1]: > 8.00

Structure (SMILES): CC(C)N1CCC(F)(c2ccc(-c3cc4c(N5CCN(C(=O)C6CC6)CC5)ccnn4c3)cc2)CC1 [Compound 583]
- pIC50 (human ALK2 R206H): > 7.00
- pIC50 [1]: > 8.00

Structure (SMILES): CC(C)N1CCCC1c1ccc(-c2cc3c(N4CCN(C(=O)C5CC5)CC4)ccnn3c2)cc1 (stereo not drawn) [Compound 209]
- pIC50 (human ALK2 R206H): > 7.00
- pIC50 [1]: > 8.00

Structure (SMILES): CCOC(=O)N1CCN(c2ccnn3cc(-c4ccc([C@]5(F)CCCNC5)cc4)cc23)CC1 [Compound 479]
- pIC50 (human ALK2 R206H): > 7.00
- pIC50 [1]: > 8.00

Structure (SMILES): CCNC(=O)N1CCN(c2ccnn3cc(-c4ccc(C5CN(C(C)C)CCN5C)cc4)cc23)CC1 (stereo not drawn) [Compound 587]
- pIC50 (human ALK2 R206H): > 7.00
- pIC50 [1]: > 8.00

Structure (SMILES): NC1(c2ccc(-c3cc4c(N5CCN(C(=O)C6CC6)CC5)ccnn4c3)cc2)CCOCC1 [Compound 768]
- pIC50 (human ALK2 R206H): > 7.00
- pIC50 [1]: > 8.00

Structure (SMILES): CC(C)N1CCC(c2ccc(-c3cc4c(N5CCN(C(=O)OC6CCC6)CC5)ccnn4c3)cc2)CC1 [Compound 621]
- pIC50 (human ALK2 R206H): 6.30 to 7.00
- pIC50 [1]: > 8.00

Structure (SMILES): COC1(c2cnc(-c3cc4c(N5CCN(C(=O)C6CC6)CC5)ccnn4c3)c(F)c2)CCN(C(C)C)CC1 [Compound 689]
- pIC50 (human ALK2 R206H): 6.30 to 7.00
- pIC50 [1]: > 8.00

Structure (SMILES): CC(C)N1CCCC(c2ccc(-c3cc4c(N5CCN(C(=O)N6CC(C#N)C6)CC5)ccnn4c3)cc2)C1 (stereo not drawn) [Compound 411]
- pIC50 (human ALK2 R206H): 6.30 to 7.00
- pIC50 [1]: > 8.00

Structure (SMILES): CCOC1(c2ccc(-c3cc4c(N5CCN(C(=O)OC6COC6)CC5)ccnn4c3)nc2)CCNCC1 [Compound 647]
- pIC50 (human ALK2 R206H): > 7.00
- pIC50 [1]: > 8.00

Structure (SMILES): CCN1CCC(Oc2ccc(-c3cc4c(N5CCN(C(=O)C6CC6)CC5)ccnn4c3)cc2)CC1 [Compound 268]
- pIC50 (human ALK2 R206H): 6.30 to 7.00
- pIC50 [1]: 7.30 to 8.00

Structure (SMILES): CCN1CCN(c2ccc(-c3cc4c(N5CCN(C(=O)C6CC6(F)F)CC5)ccnn4c3)cc2)CC1 (stereo not drawn) [Compound 361]
- pIC50 (human ALK2 R206H): 6.30 to 7.00
- pIC50 [1]: > 8.00

Structure (SMILES): CC(C)N1CCC[C@@H](c2ccc(-c3cc4c(N5CCN(C(=O)OC6COC6)CC5)ccnn4c3)cc2)C1 [Compound 631, (S)-oxetan-3-yl 4-(6-(4-(1-isopropylpiperidin-3-yl)phenyl)pyrrolo[1,2-b]pyridazin-4-yl)piperazine-1-carboxylate]
- pIC50 (human ALK2 R206H): > 7.00
- pIC50 [1]: > 8.00

Structure (SMILES): N#C[C@H]1C[C@@H]1C(=O)N1CCN(c2ccnn3cc(-c4ccc([C@]5(F)CCCNC5)cc4)cc23)CC1 [Compound 511]
- pIC50 (human ALK2 R206H): > 7.00
- pIC50 [1]: > 8.00

Structure (SMILES): O=C(OC1COC1)N1CCN(c2ccnn3cc(-c4ccc([C@@H]5CCCNC5)cc4)cc23)CC1 [Compound 774]
- pIC50 (human ALK2 R206H): > 7.00
- pIC50 [1]: > 8.00

Structure (SMILES): O=C(OC1COC1)N1CCN(c2ccnn3cc(-c4ccc([C@@]5(F)CCCNC5)cc4)cc23)CC1 [Compound 559]
- pIC50 (human ALK2 R206H): > 7.00
- pIC50 [1]: > 8.00

Structure (SMILES): CCN1CCN(c2ccc(-c3cc4c(N5CCN(C(=O)C(C)C)CC5)ccnn4c3)cc2)CC1 [Compound 223]
- pIC50 (human ALK2 R206H): 6.30 to 7.00
- pIC50 [1]: 7.30 to 8.00

Structure (SMILES): CC(C)N1CCN(c2ccc(-c3cc4c(N5CCN(C(=O)[C@H]6CC[C@H](C#N)CC6)CC5)ccnn4c3)cc2)CC1 [Compound 436]
- pIC50 (human ALK2 R206H): > 7.00
- pIC50 [1]: > 8.00

Structure (SMILES): CCNC(=O)N1CCN(c2ccnn3cc(-c4ccc([C@@H]5CNCCO5)cc4)cc23)CC1 [Compound 142]
- pIC50 (human ALK2 R206H): 6.30 to 7.00
- pIC50 [1]: > 8.00

Structure (SMILES): CC(C)N1CC[C@@H](c2ccc(-c3cc4c(N5CCN(C(=O)[C@H]6C[C@H](C#N)C6)CC5)ccnn4c3)cc2)C1 [Compound 364]
- pIC50 (human ALK2 R206H): > 7.00
- pIC50 [1]: > 8.00

Structure (SMILES): CCCNC(=O)N1CCN(c2ccnn3cc(-c4ccc([C@@H]5CCN(C(C)C)C5)cc4)cc23)CC1 [Compound 530]
- pIC50 (human ALK2 R206H): > 7.00
- pIC50 [1]: > 8.00

Structure (SMILES): CC(C)N1CCC(c2ccc(-c3cc4c(N5CCN(C(=O)C6CC6)CC5)ccnn4c3)cn2)CC1 [Compound 267]
- pIC50 (human ALK2 R206H): > 7.00
- pIC50 [1]: > 8.00

Structure (SMILES): CC(C)N1CCC(c2ccc(-c3cc4c(N5CCN(C(=O)OC6CC(C#N)C6)CC5)ccnn4c3)cc2)CC1 (stereo not drawn) [Compound 704]
- pIC50 (human ALK2 R206H): > 7.00
- pIC50 [1]: > 8.00
